Source: patent US6271342A, “Sugar-modified cytostatics” (Bayer Aktiengesellschaft, priority 1995, dated 2001)

Experiments:
[1] = Investigation of organ distribution in naked mice carrying SW 480 tumours; assay type: in vivo, Athymic naked mice (strain NMRI nu/nu)
Description: Athymic naked mice (strain NMRI nu/nu) bred in "Drug Development Laboratory, Oncotest GmbH", Prof. H. H. Fiebig, Freiburg, were used for all the experiments. The animals were kept in Macrolon cages under laminar flow conditions. Tissue of the cell line SW 480 which had been grown beforehand in several passages in the naked mice, was used as the tumour material.
Two tumours per animal were implanted subcutaneously in the two flanks of the naked mice 6 to 8 weeks old. The animals were kept for 26 to 27 days until the time of randomization. The average tumour size was then 500 mg, corresponding to a tumour diameter of about 10 mm.
The pharmacokinetics themselves proceeded as follows: the substance to be investigated was injected into the naked mice and the mice were then put back in the cages until samples were taken after 1/2 hour and after 4 hours. The taking of samples itself began with sampling of blood. For this, the mouse was anaesthetized by means of anaesthetic ether (duration 1/2 to one minute). 0.5 hour and 4 hours after injection of the substance, the abdominal cavity was opened and the mouse was exsanguinated under anaesthesia via the Vena cava caudalis in the course of 1 to 2 minutes and then sacrificed by breaking its neck. As a result, central circulatory arrest occurred and organ perfusion was suppressed. The individual organs were then exposed and removed, an operation which took about 5 minutes. Immediately thereafter, the organ samples and then the remainder of the body were weighed and frozen in liquid nitrogen.
The substance "conjugate 1" is administered i.p. in an amount of 300 mg/kg of body weight and the substance "conjugate 2" is administered i.v. into the tail vein in an amount of 100 mg/kg. 5 animals are used per substance and time.
5, 10, 50, 100 and 200 μg of substance, dissolved in ethanol/water (1:1, v/v) were added to 1 g of bovine liver. The samples were then ground in a mortar with 1 g of sea sand and 2.5 ml of cooled ethanol/water (1:1, v/v) and centrifuged at 3500 rpm for 2 minutes. After removal of the supernatant, the residue was again mixed with 2.5 ml of ethanol/water and centrifuged and the supernatants were combined. In each case 100 μl were taken and analyzed by HPLC.
The organs were worked up analogously to A, the entire organs being broken down with 2.5 ml of ethanol/water and extracted.
The amount of blood taken was mixed with 2 ml of ethanol/water (1:1, v/v) and centrifuged for 2 minutes at 3500 rpm, and the supernatant was decanted. 2 ml of ethanol/water (1:1, v/v) were again added to the residue, the mixture was centrifuged and the supernatants were combined. In each case 100 μl of the combined supernatants were analyzed by HPLC. The HPLC conditions used under A were used. [drawing 14]

HT 29 = experiment: Growth inhibition test (MTT) for cytotoxic properties; assay type: cell-based, human; details: Table 1a, glycoconjugates of batracyline
Summary of the method: (§1)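 IC50 values come from an MTT read at 540 nm (5 h at 37 °C, 5 mg/ml MTT stock), taken on day 3 and day 6. Cells (HT 29, SW 480; 50,000 cells/ml in RPMI/10% FCS) were pre-cultured 1 day, then compound in DMSO was added.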

SW 480 = experiment: as above; assay type: cell-based, human; details: Table 1a, glycoconjugates of batracyline
Summary of the method: as §1

[2] = Investigation of organ distribution in naked mice carrying SW 480 tumours; assay type: in vivo, Athymic naked mice (strain NMRI nu/nu); details: after conjugate 1 i.p. 300 mg/kg
[3] = Kidney, after conjugate 2 i.v. 100 mg/kg
[4] = Tumour, after conjugate 2 i.v. 100 mg/kg

## batracyline
[1]; Kidney, after conjugate 1 i.p. 300 mg/kg
  Mean 4 hours (μg/g of organ): 27.5 μg/g of organ
[1]; [3]
  Mean 0.5 hour (μg/g of organ): 10.7 μg/g of organ
  Mean 4 hours (μg/g of organ): 0.8 μg/g of organ
[1]; Liver, after conjugate 1 i.p. 300 mg/kg
  Mean 4 hours (μg/g of organ): 22.4 μg/g of organ
[1]; [4]
  Mean 0.5 hour (μg/g of organ): 2.5 μg/g of organ
  Mean 4 hours (μg/g of organ): 3.12 μg/g of organ
HT 29
  IC50: 20 µM
SW 480
  IC50: 25 µM
[2]; Kidney
  Mean 1 hour (μg/g of organ): 26.1 μg/g of organ
[2]; Liver
  Mean 1 hour (μg/g of organ): 34.1 μg/g of organ
